These results are taken from publication PMC11214487, “YZL-51N functions as a selective inhibitor of SIRT7 by NAD^+ competition to impede DNA damage repair” (iScience, 2024).

For test [1], the system named is SIRT1/2/3/5/6. The experiment in a line: Sirtuin deacetylation assay (fluorometric ELISA kit), other sirtuins. In kind it is biochemical, human. As to conditions: different concentrations. The source says: To determine the selectivity of YZL-51N, we assessed its inhibitory activity against recombinant human sirtuins expressed in E. coli through deacetylation assays in vitro (Figures 2A and 2B). […] We next validated the direct interaction between YZL-51N and SIRT1/2/6/7 using bio-layer interferometry (BLI) assays to compare their binding affinities. […] To gain insights into the ability of YZL-51N to affect sirtuin thermostability, we conducted protein thermal shift assays. At a concentration of 10 μM, YZL-51N caused shifts in the melting curves for SIRT7, SIRT6 and SIRT1 of 2.86°C, 1.0°C and 0.45°C (Figures S7A–S7C). In addition, we observed a dose-dependent increase in the ΔTm for SIRT7 following YZL-51N treatment (Figures 2F and 2G). Taken together, these findings confirm that YZL-51N is a selective inhibitor of SIRT7.
Deacetylase activity of 10 μg purified SIRT proteins was assessed using the Sirtuin Activity Assay Kit (BioVision, Cat#K324-100, USA) according to the manufacturer’s instructions. The fluorescence intensity (Ex/Em = 400/505 nm) was measured using a microplate reader (Synergy H4 Hybrid Reader, Biotek) in the end-point mode.
For orientation: In an ELISA, binding on a coated surface is turned into a signal by an enzyme label.

The target of test [2] is SIRT6 (Homo sapiens, UniProt Q8N6T7). As to the kind of experiment: Protein thermal shift assay. The test is classed as binding. The following applies: 10 μM. Here is the method:
(§1) The mixture containing SIRT1, SIRT6 or SIRT7 proteins, SYPRO Orange, compounds and buffer (100 mM Tris-HCl, 40 mM NaCl, 10 mM MgCl2, pH=7.4) were added into 0.2 mL PCR tubes for a total volume of 20 μL and placed in an ABI ViiA 7 Real-time PCR System. The temperature ranging from 35.0 to 75.0°C was increased at a rate of 0.5°C/s and the fluorescence intensity was monitored in the ROX channel.

Test [3] deals with T1, SIRT7 (Homo sapiens, UniProt Q9NRC8).
T1 construct: His-tagged full length SIRT7 protein expression from BL21 bacterial cells; His; made in house; host or cells: E. coli BL21
T1 sequence (Q9NRC8 1-400): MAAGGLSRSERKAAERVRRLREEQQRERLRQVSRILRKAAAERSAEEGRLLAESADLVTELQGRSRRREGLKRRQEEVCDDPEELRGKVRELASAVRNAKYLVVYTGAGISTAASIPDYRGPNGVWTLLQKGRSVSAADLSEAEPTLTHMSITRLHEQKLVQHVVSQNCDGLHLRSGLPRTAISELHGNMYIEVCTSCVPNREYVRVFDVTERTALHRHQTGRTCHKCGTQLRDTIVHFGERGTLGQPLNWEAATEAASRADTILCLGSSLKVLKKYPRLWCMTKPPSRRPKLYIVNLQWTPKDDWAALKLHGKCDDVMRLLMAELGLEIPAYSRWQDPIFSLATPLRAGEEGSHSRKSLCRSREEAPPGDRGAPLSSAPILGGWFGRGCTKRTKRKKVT
As to the kind of experiment: Protein thermal shift assay. The following applies: 10 μM. The test is classed as binding. Here is the method: as §1

The target in test [4] is T2, SIRT1 (Homo sapiens, UniProt Q96EB6).
T2 construct: GST-SIRT1-193-741; GST; purchased Active Motif 7846-50; host or cells: E. coli
T2 sequence (Q96EB6 193-741): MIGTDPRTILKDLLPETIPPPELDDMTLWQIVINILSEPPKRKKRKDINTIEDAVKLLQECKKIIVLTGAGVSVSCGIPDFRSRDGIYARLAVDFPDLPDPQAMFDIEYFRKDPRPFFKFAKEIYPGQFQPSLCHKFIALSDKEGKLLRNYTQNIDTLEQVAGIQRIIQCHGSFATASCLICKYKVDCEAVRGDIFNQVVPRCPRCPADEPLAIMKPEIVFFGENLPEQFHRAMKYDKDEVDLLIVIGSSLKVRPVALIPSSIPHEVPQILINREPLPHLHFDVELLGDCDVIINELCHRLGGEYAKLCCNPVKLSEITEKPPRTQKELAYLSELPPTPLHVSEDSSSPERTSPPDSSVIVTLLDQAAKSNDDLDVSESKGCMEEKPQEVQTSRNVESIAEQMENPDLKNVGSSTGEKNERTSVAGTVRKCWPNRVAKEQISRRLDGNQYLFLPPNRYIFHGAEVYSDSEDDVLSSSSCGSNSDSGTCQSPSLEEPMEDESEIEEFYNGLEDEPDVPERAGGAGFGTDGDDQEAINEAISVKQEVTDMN
The experiment in a line: Protein thermal shift assay. The test is classed as binding. As to conditions: 10 μM. Here is the method:
as §1

In test [5] the test system is HCT116 cells. The experiment in a line: Western blot of histone acetylation in treated cells. In kind it is cell-based, human. The following applies: HCT116, 0-40 μM, 8 h. Here is the method: After drug treatment, the cells were lysed in RIPA lysis buffer. […] The membranes were then blocked with 5% skimmed milk in TBST and incubated overnight at 4°C with the primary antibodies followed by incubation with HRP-conjugated secondary antibodies. The protein bands were then detected using the ECL substrates and visualized with Tanon 5200SF Imaging System.
A general note: In western blotting, separated proteins are transferred to a membrane and probed.

Test [6] concerns HCT116. As to the kind of experiment: CCK-8 cell proliferation assay. The test is classed as cell-based. As to conditions: Homo sapiens, HCT-116; HCT116, 48 h. Here is the method: (§2) The plate was added with 10 μL CCK-8 solution to each well and incubated for 2 h at 37°C. The absorbance was measured at 450 nm using a microtiter plate reader (BioTek).
For orientation: Tetrazolium dyes change colour on reduction, which living cells bring about.

For test [7], the system named is SW620. The experiment in a line: CCK-8 cell proliferation assay. In kind it is cell-based. As to conditions: Homo sapiens, SW-620; SW620, 48 h. Here is the method: as §2
In test [8] the test system is HT29. As to the kind of experiment: CCK-8 cell proliferation assay. The test is classed as cell-based. The following applies: Homo sapiens, HT-29; HT29, 48 h. Here is the method:
as §2

In test [9] the target is T1, SIRT7. The experiment in a line: Bio-layer interferometry (BLI) binding assay. As to conditions: 0-40 μM, PBST pH 7.4. Here is the method:
The binding affinity of SIRT1/2/6/7 with YZL-51N was determined using Super Streptavidin (SSA) biosensors in an Octet Red 96 instrument (ForteBio Inc., Menlo Park, CA, United States). Briefly, the biotinylated SIRT1/2/6/7 proteins were immobilized onto the surface of SSA biosensors. Increasing concentrations of YZL-51N were allowed to flow through the chips at room temperature in PBST buffer (pH 7.4). Assays were performed in black 96-well flat bottom plates on a shaker at 1000 r/min. The association and dissociation of YZL-51N with SIRT1/2/6/7 were measured for 300 s. Kinetic parameters and affinities were calculated from a non-linear global fit of the data between YZL-51N and SIRT1/2/6/7 using Octet Data Analysis software version 7.0 (Fortebio).

Sequence of SIRT6 (Q8N6T7 whole entry): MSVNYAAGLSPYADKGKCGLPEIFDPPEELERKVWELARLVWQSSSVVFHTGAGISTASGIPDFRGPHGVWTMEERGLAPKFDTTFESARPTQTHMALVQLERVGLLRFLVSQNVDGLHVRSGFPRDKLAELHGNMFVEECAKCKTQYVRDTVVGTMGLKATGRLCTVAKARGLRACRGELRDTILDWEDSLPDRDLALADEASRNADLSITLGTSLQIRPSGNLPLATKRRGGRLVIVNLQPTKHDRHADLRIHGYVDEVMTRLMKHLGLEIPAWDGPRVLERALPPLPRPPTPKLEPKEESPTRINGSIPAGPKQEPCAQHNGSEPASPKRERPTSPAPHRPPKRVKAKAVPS

Broadly, the IC50 is the point on the concentration scale where inhibition reaches its midpoint. Broadly, the Kd is the free concentration of one partner at which half of the binding sites on the other are occupied at equilibrium, for simple one-to-one binding. In the case of `COC(=O)/C(=C\C(=O)c1ccc(O)c(O)c1)c1ccc(O)c(O)c1` [YZL-51N], in test [1], the “Inhibition of deacetylase activities of other sirtuins” value is recorded as “did not inhibit”. The “Shift in the melting curve” value was determined as 1.0 °C in test [2], 2.86 °C in test [3] and 0.45 °C in [4]. In test [5], the “Level of H3K18ac” value is listed as “increased”. The IC50 was 37.5 µM in test [6], 28.6 µM in test [7] and 47.5 µM in test [8]. For the same compound, the Kd in test [9] is 3.3 µM.
